For data set [1] the following is noted: 298.15 K; 101.33 kPa; Liquid; Vibrating tube method.
Data set [2] is described as follows: refractive index (Na D-line) (dimensionless). The conditions noted are these: 298.15 K; 101.33 kPa; Liquid; Standard Abbe refractometry.

The structures appear in SMILES notation. Numbers after ± are expanded uncertainties.

As for `CCOS(=O)(=O)[O-].CC[n+]1cccc(C)c1` [1-ethyl-3-methylpyridinium ethylsulfate], the mass density (usually the mass of a sample divided by its volume) in data set [1] worked out at 1219.61 ± 0.41 kg/m3. The refractive index (as a rule, a measure of how strongly the sample bends light) in data set [2] is 1.50591 ± 0.00038.
